Where two headings read alike, the source gives them in different places.
Tests used:
IMP-1 = IMP-1 (Serratia marcescens, UniProt P52699); test: biochemical; type: biochemical; conditions: fluorescence assay, CCF2-FA substrate, 2 pM enzyme, 2 hours at 25° C.; read-out: IMP-1 IC50
Summary of the method: (§1)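 Enzyme activity was measured by fluorescence using CCF2-FA, a cephalosporin-linked 7-hydroxycoumarin/fluorescein substrate, with inhibitor, metallo-β-lactamase and substrate incubated together for 2 hours at 25° C. IC50 came from a 4-parameter fit of inhibition versus log inhibitor concentration.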

NDM-1 = NDM-1 (Klebsiella pneumoniae, UniProt C7C422); test: biochemical; type: biochemical; conditions: fluorescence assay, CCF2-FA substrate, 1 pM enzyme, 2 hours at 25° C.; read-out: NDM-1 IC50
Summary of the method: as §1

[1] = system: Pseudomonas aeruginosa efflux− (MB9799), IMP-1; type: cell-based; conditions: C, D serine β-lactamase inhibitor closely related to relebactam; for P. aeruginosa expressing IMP-1, efflux − (MB9799) MITC95: concentration restoring susceptibility to imipenem at 2 μg/mL in the presence of a class A; for Concentration of metallo-β-lactamase inhibitor which restores susceptibility of efflux − (MB9799) strain to imipenem: imipenem at 2 μg/mL, in the presence of a class A
Summary of the method: (§2)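 Steps: add fixed imipenem and/or ceftazidime (usually CLSI breakpoint) and fixed AmpC-directed class A/C inhibitor to microbroth MIC wells; titrate MBL inhibitor; record concentration regaining susceptibility for each PAO1-derived strain; divide efflux+ by efflux− value.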

[2] = system: Pseudomonas aeruginosa efflux+ (MB9798), IMP-1; type: cell-based; set-up: Concentration of metallo-β-lactamase inhibitor which restores susceptibility of efflux + (MB9798) strain to imipenem: unit not given here; conditions: C, D serine β-lactamase inhibitor closely related to relebactam; for P. aeruginosa expressing IMP-1, efflux + (MB9798) MITC95: concentration restoring susceptibility to imipenem at 2 μg/mL in the presence of a class A; for Concentration of metallo-β-lactamase inhibitor which restores susceptibility of efflux + (MB9798) strain to imipenem: imipenem at 2 μg/mL, in the presence of a class A
Summary of the method: as §2

[3] = system: Pseudomonas aeruginosa MB9798 vs MB9799
Summary of the method: as §2

VIM-1 = VIM-1 (Pseudomonas aeruginosa (strain ATCC 15692 / DSM 22644 / CIP 104116 / JCM 14847 / LMG 12228 / 1C / PRS 101 / PAO1), UniProt A0A0F7KYQ8); test: biochemical; conditions: CCF2-FA substrate, 30 pM enzyme, 2 hours at 25° C.
Summary of the method: as §1

[4] = system: Serratia marcescens expressing IMP-1 (CL5741); type: cell-based; conditions: for Serratia marcescens expressing IMP-1 (CL5741) MITC95: with imipenem 1 μg/ml, 95% inhibition of bacterial growth; for Serratia marcescens MITC95: IMP-1 strain CL5741, with imipenem 1 μg/ml, 95% inhibition of growth
Summary of the method: (§3)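 Colonies grown overnight on blood agar at 35° C were suspended in saline, diluted 1:100 into 1.1×CAMHB and dispensed. Imipenem was added to 1 μg/ml, then test compound. After 22 hours to 24 hours at 35° C, absorbance was recorded.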

[5] = system: Escherichia coli expressing NDM-1 (CLB30005, CLB30016); type: cell-based; conditions: with imipenem 1 μg/ml; for Escherichia coli expressing NDM-1 (CLB30016) MITC95: 95% inhibition of bacterial growth; for Escherichia coli MITC95: NDM-1 strain, 95% inhibition of growth
Summary of the method: as §3

[6] = system: Klebsiella pneumoniae expressing VIM-1 (IHMA599644); type: cell-based; conditions: for Klebsiella pneumoniae expressing VIM-1 (IHMA599644) MITC95: with imipenem 1 μg/ml, 95% inhibition of bacterial growth; for Klebsiella pneumoniae MITC95: VIM-1 strain IHMA599644, with imipenem 1 μg/ml, 95% inhibition of growth
Summary of the method: as §3

[7] = ratio MITC95 PA_9798/MITC95 PA_9799
[8] = fluorescence assay, read-out: VIM-1 IC50
[9] = fold difference between efflux+ (MB9798) and efflux− (MB9799) strains, imipenem at 2 μg/mL

IMP-1, sequence (P52699 whole entry, looked up, species assumed): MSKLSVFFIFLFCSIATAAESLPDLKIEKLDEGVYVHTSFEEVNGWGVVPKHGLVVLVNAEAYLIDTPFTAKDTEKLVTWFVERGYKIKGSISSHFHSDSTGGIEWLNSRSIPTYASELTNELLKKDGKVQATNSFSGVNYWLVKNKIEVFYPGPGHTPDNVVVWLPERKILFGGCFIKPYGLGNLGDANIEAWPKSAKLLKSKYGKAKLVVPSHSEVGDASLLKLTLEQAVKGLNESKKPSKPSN
NDM-1, sequence (C7C422 whole entry, looked up, species assumed): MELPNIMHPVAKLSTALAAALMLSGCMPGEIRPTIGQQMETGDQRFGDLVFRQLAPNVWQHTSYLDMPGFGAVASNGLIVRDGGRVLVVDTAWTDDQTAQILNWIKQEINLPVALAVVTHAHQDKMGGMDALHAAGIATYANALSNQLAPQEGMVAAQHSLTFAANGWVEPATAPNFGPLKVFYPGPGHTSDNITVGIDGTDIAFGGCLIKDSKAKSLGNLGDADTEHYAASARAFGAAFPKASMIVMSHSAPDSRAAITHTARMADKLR

| SMILES | IC50 (IMP-1) [nM] | IC50 (NDM-1) [nM] | P. aeruginosa expressing IMP-1, efflux − (MB9799) MITC95 [1] [µM] | P. aeruginosa expressing IMP-1, efflux + (MB9798) MITC95 [2] [µM] | Efflux ratio [3, 7] | IC50 (VIM-1; [8]) [nM] | Serratia marcescens expressing IMP-1 (CL5741) MITC95 [4] [µM] | Escherichia coli expressing NDM-1 (CLB30016) MITC95 [5] [µM] | Klebsiella pneumoniae expressing VIM-1 (IHMA599644) MITC95 [6] [µM] | Serratia marcescens MITC95 [4] [µM] | Escherichia coli MITC95 [5] [µM] | Klebsiella pneumoniae MITC95 [6] [µM] | Concentration of metallo-β-lactamase inhibitor which restores susceptibility of efflux − (MB9799) strain to imipenem [1] | Concentration of metallo-β-lactamase inhibitor which restores susceptibility of efflux + (MB9798) strain to imipenem [2] | Efflux ratio [3, 9] | IC50 (VIM-1; VIM-1 IC50, fluorescence assay) [nM] |
| --- | --- | --- | --- | --- | --- | --- | --- | --- | --- | --- | --- | --- | --- | --- | --- | --- |
| NCC(F)(F)CNS(=O)(=O)c1ccc(-c2cccc3sc(N)nc23)c(-c2nnn[nH]2)c1S(N)(=O)=O [Example 47, 4-(2-amino-1,3-benzothiazol-4-yl)-N1-(3-amino-2,2-difluoropropyl)-3-(1H-tetrazol-5-yl)benzene-1,2-disulfonamide] | 0.484 | 0.0658 | 3.125 | 3.125 | 1.00 | 0.304 | 3.125 | 6.25 | 12.5 |  |  |  |  |  |  |  |
| NCCNS(=O)(=O)c1ccc(-c2cccc(-c3c[nH]c(N)n3)c2)c(-c2nn[nH]n2)c1S(N)(=O)=O [Example 353, 3′-(2-amino-1H-imidazol-4-yl)-N4-(2-aminoethyl)-2-(2H-tetrazol-5-yl)-[1,1′-biphenyl]-3,4-disulfonamide] | 1.15 | 0.259 | 0.7813 | 1.563 | 2.00 | 0.571 |  |  |  | 0.7813 | 0.3906 | 1.563 |  |  |  |  |
| NCCNc1cc(-c2ccc(S(=O)(=O)NCCO)c(S(N)(=O)=O)c2-c2nn[nH]n2)ccn1 [Example 457, 4-(2-((2-aminoethyl)amino)pyridin-4-yl)-N1-(2-hydroxyethyl)-3-(2H-tetrazol-5-yl)benzene-1,2-disulfonamide] | 5.29 | 3.68 |  |  |  | 0.49 |  |  |  | 3.125 | 1.563 | 6.25 | 1.563 | 50 | 31.99 |  |
| Nc1nc2c(-c3ccc(S(=O)(=O)NC4CCNCC4)c(S(N)(=O)=O)c3-c3nn[nH]n3)cccc2[nH]1 [Example 260, 4-(2-amino-1H-benzo[d]imidazol-4-yl)-N1-(piperidin-4-yl)-3-(1H-tetrazol-5-yl)benzene-1,2-disulfonamide] | 0.648 | 0.0431 | 0.7813 | 0.7813 | 1.00 | 0.151 |  |  |  | 1.563 | 0.7813 | 1.563 |  |  |  |  |
| NC[C@@H](N)CNS(=O)(=O)c1ccc(-c2cnc(N)s2)c(-c2nn[nH]n2)c1S(N)(=O)=O [Example 377, (R)-4-(2-aminothiazol-5-yl)-N1-(2,3-diaminopropyl)-3-(2H-tetrazol-5-yl)benzene-1,2-disulfonamide] | 1.18 | 0.573 | 0.7813 | 1.563 | 2.00 | 0.885 |  |  |  | 1.563 | 0.7813 | 3.125 |  |  |  |  |
| Nc1nc2c(-c3ccc(S(=O)(=O)NCC4(CO)CC4)c(S(N)(=O)=O)c3-c3nnn[nH]3)cccc2s1 [Example 37, 4-(2-amino-1,3-benzothiazol-4-yl)-N1-{[1-(hydroxymethyl)cyclopropyl]methyl}-3-(1H-tetrazol-5-yl)benzene-1,2-disulfonamide] | 0.287 | 0.00769 | 6.25 | 6.25 | 1.00 |  | 3.125 | 12.5 | 12.5 |  |  |  |  |  |  | 0.198 |
| Nc1nc2c(-c3ccc(S(=O)(=O)NC4CN5CCC4CC5)c(S(N)(=O)=O)c3-c3nnn[nH]3)cccc2s1.O=C(O)C(F)(F)F (stereo not drawn) [Example 97, 3-(4-(2-aminobenzo[d]thiazol-4-yl)-2-sulfamoyl-3-(1H-tetrazol-5-yl)phenylsulfonamido)quinuclidin-1-ium 2,2,2-trifluoroacetate] | 0.383 | 0.0214 | 1.563 | 1.563 | 1.00 |  | 3.125 | 3.125 | 3.125 |  |  |  |  |  |  | 0.222 |
| NCc1nc2cc(-c3ccc(S(=O)(=O)N[C@@H]4CCNC4)c(S(N)(=O)=O)c3-c3nn[nH]n3)ccc2[nH]1 [Example 274, (R)-4-(2-(aminomethyl)-1H-benzo[d]imidazol-5-yl)-N1-(pyrrolidin-3-yl)-3-(2H -tetrazol-5-yl)benzene-1,2-disulfonamide] | 0.486 | 0.0833 | 0.7813 | 0.7813 | 1.00 | 0.102 |  |  |  | 1.563 | 0.7813 | 1.563 |  |  |  |  |
| NCc1nc2c(-c3ccc(S(=O)(=O)N[C@@H](CN)CO)c(S(N)(=O)=O)c3-c3nn[nH]n3)cccc2s1 [Example 381, (S)—N1-(1-amino-3-hydroxypropan-2-yl)-4-(2-(aminomethyl)benzo[d]thiazol-4-yl)-3-(2H-tetrazol-5-yl)benzene-1,2-disulfonamide] | 0.241 | 0.0602 | 0.7813 | 1.172 | 1.50 |  |  |  |  | 1.172 | 0.7813 | 2.344 |  |  |  | 0.117 |
| NCCNS(=O)(=O)c1ccc(-c2ccnc(N)c2)c(-c2nn[nH]n2)c1S(N)(=O)=O [Example 400] | 1.42 | 0.598 |  |  |  | 0.244 |  |  |  | 0.3906 | 0.1953 | 1.563 | 0.7813 | 1.563 | 2.00 |  |

From patent US10221163B2 (priority 2015, dated 2019)
